In publication PMC5298005 (Clinical Pharmacology in Drug Development, 2016):
Read-outs that look alike come from different tables or passages of the source. Marks after values point to notes of the source that are not given here.

Assays:
[1] = cited from earlier work
[2] = Phase 1 drug-interaction study, prednisone with isavuconazole: pharmacokinetics
[3] = type: in vivo, human (healthy subjects)
[4] = Phase 1 drug-interaction study, tacrolimus with isavuconazole: pharmacokinetics; type: in vivo, human (healthy subjects)
[5] = Phase 1 drug-interaction study, sirolimus with isavuconazole: pharmacokinetics; type: in vivo, human (healthy subjects)
[6] = Treatment-emergent adverse events, cyclosporine study; type: in vivo, human (healthy subjects); conditions: TEAE during isavuconazole‐only administration
CYP3A4 = conditions: human liver microsomes expressing CYP3A4 in vitro; ref data on file; cited from earlier work
[7] = both, human, in vivo, po, 20 mg
[8] = prednisolone after prednisone 20 mg single oral dose
[9] = prednisone + isavuconazole vs prednisone alone
[10] = MPAG after MMF 1 g single oral dose
[11] = both, human, whole blood, po, 5 mg
[12] = tacrolimus 5 mg single oral dose
[13] = tacrolimus + isavuconazole vs tacrolimus alone
[14] = MMF + isavuconazole vs MMF alone
[15] = MPA after MMF 1 g single oral dose
[16] = both, human, whole blood, po, 2 mg
[17] = sirolimus 2 mg single oral dose
[18] = both, human, plasma, oral, 200 mg
[19] = isavuconazole + tacrolimus vs isavuconazole alone
[20] = isavuconazole + cyclosporine vs isavuconazole alone
[21] = isavuconazole + sirolimus vs isavuconazole alone
[22] = isavuconazole + MMF vs isavuconazole alone

## CCC(C)n1ncn(-c2ccc(N3CCN(c4ccc(OCC5COC(Cn6cncn6)(c6ccc(Cl)cc6Cl)O5)cc4)CC3)cc2)c1=O (stereo not drawn) [Itraconazole, itraconazole]
[1]; cyclosporine coadministered with itraconazole
  Fold increase in trough concentrations of cyclosporine: ↑ 2.7 ^b ^,13 fold
[1]; tacrolimus coadministered with itraconazole
  Fold increase in trough concentrations of tacrolimus: ↑ 5.6 ^b ^,13 fold

## CC[C@@H]([C@H](C)O)n1ncn(-c2ccc(N3CCN(c4ccc(OC[C@@H]5CO[C@@](Cn6cncn6)(c6ccc(F)cc6F)C5)cc4)CC3)cc2)c1=O [Posaconazole, posaconazole]
[1]; sirolimus coadministered with posaconazole
  Fold increase in area under the plasma concentration‐time curve of sirolimus: ↑ 7.9 ^a ^,14 fold
[1]; tacrolimus coadministered with posaconazole
  Fold increase in area under the plasma concentration‐time curve of tacrolimus: ↑ 3.6 ^a ^,14 fold

## C[C@]12C=CC(=O)C=C1CC[C@@H]1[C@@H]2[C@@H](O)C[C@@]2(C)[C@H]1CC[C@]2(O)C(=O)CO [Prednisolone, prednisolone]
[2]; [7]
  AUC(0-inf): 1650 ng·h/mL
  AUC(0-t): 1640 ng·h/mL
  Cmax: 295 ng/mL
  Tmax: 1.5 h
  half-life: 2.9 h
[2]; [8]
  Cmax lower in the presence vs absence of isavuconazole: 4%
  Mean AUC0–∞ higher in the presence vs absence of isavuconazole: 8%
  Mean AUClast higher in the presence vs absence of isavuconazole: 8%
[2]; [9]
  AUC0–∞, Geometric Least‐Squares Mean Ratio, % (90%CI): 108 (102, 114) %
  AUClast, Geometric Least‐Squares Mean Ratio, % (90%CI): 108 (102, 114) %
  Cmax, Geometric Least‐Squares Mean Ratio, % (90%CI): 96 (90, 102) %

## COc1c(C)c2c(c(O[C@@H]3O[C@H](C(=O)O)[C@@H](O)[C@H](O)[C@H]3O)c1C/C=C(\C)CCC(=O)O)C(=O)OC2 [MPAG, mycophenolic acid phenyl glucuronide]
[3]; [10]
  AUC0–∞ lower in the presence vs absence of isavuconazole: 24%
  AUClast lower in the presence vs absence of isavuconazole: 27%
  Cmax lower in the presence vs absence of isavuconazole: 32%

## C[C@@H](c1ncncc1F)[C@](O)(Cn1cncn1)c1ccc(F)cc1F [Voriconazole, voriconazole]
[1]; cyclosporine coadministered with voriconazole
  Fold increase in area under the plasma concentration‐time curve of cyclosporine: ↑ 1.7 ^a ^,7 fold
[1]; sirolimus coadministered with voriconazole
  Fold increase in area under the plasma concentration‐time curve of sirolimus: ↑ 11 ^a ^,7 fold
[1]; tacrolimus coadministered with voriconazole
  Fold increase in area under the plasma concentration‐time curve of tacrolimus: ↑ 3 ^a ^,7 fold
[1]; voriconazole coadministration, ref VFEND package insert
  effect of coadministration on MPA AUC: no significant effect

## C=CC[C@@H]1/C=C(\C)C[C@H](C)C[C@H](OC)[C@H]2O[C@@](O)(C(=O)C(=O)N3CCCC[C@H]3C(=O)O[C@H](/C(C)=C/[C@@H]3CC[C@@H](O)[C@H](OC)C3)[C@H](C)[C@@H](O)CC1=O)[C@H](C)C[C@@H]2OC [Tacrolimus, tacrolimus]
[4]; [11]
  AUC(0-inf): 313 ng·h/mL
  AUC(0-t): 304 ng·h/mL
  Cmax: 26.7 ng/mL
[4]; [12]
  Mean AUC0–∞ higher in the presence vs absence of isavuconazole: 125%
  Mean AUClast higher in the presence vs absence of isavuconazole: 127%
  Mean Cmax higher in the presence vs absence of isavuconazole: 42%
[4]; [13]
  AUC0–∞, Geometric Least‐Squares Mean Ratio, % (90%CI): 225 (191, 266) %
  AUClast, Geometric Least‐Squares Mean Ratio, % (90%CI): 227 (192, 268) %
  Cmax, Geometric Least‐Squares Mean Ratio, % (90%CI): 142 (122, 164) %

## COc1c(C)c2c(c(O)c1C/C=C(\C)CCC(=O)O)C(=O)OC2 [Mycophenolic Acid, mycophenolic acid]
[3]; MMF 1 g single oral dose alone, plasma, n = 24, arithmetic mean (SD)
  CL/F: 11.5 (3.4) L/h
[3]; [14]
  AUC0–∞, Geometric Least‐Squares Mean Ratio, % (90%CI): 135 (127, 145) %
  AUClast, Geometric Least‐Squares Mean Ratio, % (90%CI): 132 (124, 141) %
  Cmax, Geometric Least‐Squares Mean Ratio, % (90%CI): 89 (76, 103) %
[3]; [15]
  Cmax lower in the presence vs absence of isavuconazole: 11%
  Mean AUC0–∞ higher in the presence vs absence of isavuconazole: 35%
  Mean AUClast higher in the presence vs absence of isavuconazole: 32%
[3]; both, human, plasma, po, 1 g
  Tmax: 0.5 h
  half-life: 12.6 h

## CO[C@H]1C[C@@H]2CC[C@@H](C)[C@@](O)(O2)C(=O)C(=O)N2CCCC[C@H]2C(=O)O[C@H]([C@H](C)C[C@@H]2CC[C@@H](O)[C@H](OC)C2)CC(=O)[C@H](C)/C=C(\C)[C@@H](O)[C@@H](OC)C(=O)[C@H](C)C[C@H](C)/C=C/C=C/C=C/1C [Sirolimus, sirolimus]
[5]; [16]
  AUC(0-inf): 196 ng·h/mL
  AUC(0-t): 152 ng·h/mL
  Cmax: 5.1 ng/mL
  half-life: 74.8 h
[5]; [17]
  Mean AUC0–∞ higher in the presence vs absence of isavuconazole: 84%
  Mean AUClast higher in the presence vs absence of isavuconazole: 108%
  Mean Cmax higher in the presence vs absence of isavuconazole: 65%

## C[C@@H](c1nc(-c2ccc(C#N)cc2)cs1)[C@](O)(Cn1cncn1)c1cc(F)ccc1F [Isavuconazole, isavuconazole]
[6]; 1 subject, day 15, 0.9 mg/dL on day –1
  blood creatinine: 1.4 mg/dL
[6]; second subject, by day 14, baseline 1.3 mg/dL
  blood creatinine: 1.4 mg/dL
[4]; [18]
  AUC: 89800 ng·h/mL
  Cmax: 4900 ng/mL
[4]; in vivo
  mean AUCτ of isavuconazole higher in the presence of tacrolimus: 12%
  mean Cmax of isavuconazole higher in the presence of tacrolimus: 26%
[4]; [19]
  AUCτ, Geometric Least‐Squares Mean, % (90%CI): 112 (110, 115) %
  Cmax, Geometric Least‐Squares Mean, % (90%CI): 126 (118, 134) %
CYP3A4
  isavuconazole metabolized: 66.2%
[2]; both, human, in vivo, 200 mg
  AUC: 88200 ng·h/mL
  Cmax: 5600 ng/mL
  Tmax: 2 h
both, human, in vivo, 200 mg
  AUC: 108000 ng·h/mL
  Cmax: 5700 ng/mL
[20]
  AUCτ, Geometric Least‐Squares Mean, % (90%CI): 103 (100, 106) %
  Cmax, Geometric Least‐Squares Mean, % (90%CI): 130 (121, 139) %
[5]; [18]
  AUC: 92000 ng·h/mL
  Tmax: 2 h
[5]; in vivo
  mean AUCτ of isavuconazole higher in the presence of sirolimus: 11%
  mean Cmax of isavuconazole higher in the presence of sirolimus: 4%
[5]; [21]
  AUCτ, Geometric Least‐Squares Mean, % (90%CI): 111 (109, 114) %
  Cmax, Geometric Least‐Squares Mean, % (90%CI): 104 (100, 108) %
[3]; MMF study, isavuconazole 200 mg QD alone, plasma, n = 22, arithmetic mean (SD)
  AUCτ: 101.4 (37.6) μg·h/mL
[3]; [18]
  Cmax: 6500 ng/mL
[3]; in vivo
  change of mean AUCτ of isavuconazole by coadministration with MMF: unchanged
  mean Cmax of isavuconazole increased by coadministration with MMF: 4%
[3]; [22]
  AUCτ, Geometric Least‐Squares Mean, % (90%CI): 101 (98, 103) %
  Cmax, Geometric Least‐Squares Mean, % (90%CI): 104 (100, 107) %
